Measurements published in PMC9557727, “How an assembly factor enhances covalent FAD attachment to the flavoprotein subunit of complex II” (The Journal of Biological Chemistry, 2022).
Where two headings read alike, the source gives them in different places.

How the values were obtained:
[1] = molecular target: T1, E. coli apo-FrdA (Escherichia coli, UniProt P00363); assay type: biochemical; conditions: ligand 20 mM, FAD 100 μM, 1 h, 30 °C; for Covalent FAD attachment to apo-FrdA, SdhE-dependent: +SdhE 10.4 μM
T1 construct: His6 (N); made in house; host or cells: E. coli RP437 ΔsdhE (RP-E), plasmid pCA24N-FrdA
Method: (§1) Unless specified, the reaction was performed in 50 mM potassium phosphate (pH 7.0) at 30 °C for 1 h. […] The reaction was started after addition of the appropriate flavinylation-promoting ligand at the as-indicated concentration. At different time points, the samples were mixed with 4× SDS loading buffer (Bio-Rad), and the sample loaded onto an SDS-PAGE gel (Bio-Rad; Any KdA). Following protein separation, the gel was incubated in 10% acetic acid/20% ethanol for 5 min. Upon illumination with UV light, complex II flavinylated flavoprotein is visible because of the fluorescence of the covalently bound flavin. The in-gel fluorescence of covalently attached FAD was detected using a Safe Imager 2.0 blue-light transilluminator (Thermo Fisher Scientific). The gel was then rinsed with water for 5 min and stained with Instant Blue stain (Expedeon). ImageJ (National Institutes of Health) software was used for quantification of covalently bound FAD levels and relative protein ratios. The isolated holo-SdhA/FrdA or SDHA–SDHAF2 complex were used as 100% covalent flavinylated controls. […] To do that, upon addition of fumarate, the sample (200 μl) was quickly mixed and filled into an automatic pipette. Each sample (15 μl) was then injected into a vial containing 5 μl of 4× SDS loading gel. This allowed collection of time points that are at 10 to 15 s intervals.

[2] = molecular target: T2, E. coli apo-SdhA (Escherichia coli, UniProt P0AC41); experiment: biochemical; assay type: biochemical; conditions: for Covalent FAD attachment to apo-SdhA, SdhE-dependent: +SdhE 10.4 μM; for Covalent FAD attachment to apo-SdhA, SdhE-dependent / Covalent FAD attachment to apo-SdhA, SdhE-independent: ligand 20 mM
T2 construct: His6 (N); made in house; host or cells: E. coli RP437 ΔsdhE (RP-E), plasmid pCA24N-SdhA
Method: as §1

[3] = test system: Thermus thermophilus succinate dehydrogenase; conditions: no sdhE gene; cited from earlier work
[4] = test system: Sulfolobus tokodaii succinate dehydrogenase; conditions: no sdhE gene; cited from earlier work
[5] = molecular target: T3, human apo-SDHA (Homo sapiens, UniProt P31040); experiment: In vitro covalent flavinylation of human apo-SDHA; assay type: biochemical
T3 construct: His6 (N); made in house; host or cells: E. coli BL21(DE3), plasmid pQE-hSDHA
Method: as §1

[6] = design: method as in PMID 4752947, PMID 6263261, PMID 15884941; conditions: free FAD in solution; cited from earlier work
[7] = molecular target: T4, apo-SdhA (Escherichia coli, UniProt P0AC41); assay type: biochemical; design: His6 (N); made in house; host or cells: apo-SdhA: E. coli RP437 ΔsdhE (pCA24N-SdhA); conditions: 30 min at 37 °C; FAD 100 μM, SdhE 10.4 μM
Target sequence in this assay (P64559 whole entry): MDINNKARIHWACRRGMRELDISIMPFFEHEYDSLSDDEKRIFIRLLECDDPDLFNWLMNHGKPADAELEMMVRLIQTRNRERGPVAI
Target sequence in this assay (P0AC41 whole entry): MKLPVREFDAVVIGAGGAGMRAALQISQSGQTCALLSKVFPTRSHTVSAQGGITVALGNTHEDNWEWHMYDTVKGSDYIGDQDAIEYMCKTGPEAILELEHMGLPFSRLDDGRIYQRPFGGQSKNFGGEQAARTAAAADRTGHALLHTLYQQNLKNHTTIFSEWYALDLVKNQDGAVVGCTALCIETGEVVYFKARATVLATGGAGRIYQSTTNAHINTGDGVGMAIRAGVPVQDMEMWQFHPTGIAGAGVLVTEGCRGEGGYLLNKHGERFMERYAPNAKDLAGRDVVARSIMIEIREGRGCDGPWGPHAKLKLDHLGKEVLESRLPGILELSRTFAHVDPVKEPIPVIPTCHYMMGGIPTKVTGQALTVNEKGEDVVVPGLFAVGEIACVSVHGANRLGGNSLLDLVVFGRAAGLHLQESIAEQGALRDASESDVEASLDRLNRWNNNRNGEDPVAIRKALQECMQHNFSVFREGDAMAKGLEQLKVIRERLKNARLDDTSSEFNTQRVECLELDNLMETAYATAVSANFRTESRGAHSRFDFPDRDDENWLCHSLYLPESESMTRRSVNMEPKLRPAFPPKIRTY
Method: Apo-SdhA (2.8 μM) or apo-SDHA (4.3 μM) in 40 mM Hepes (pH 7.5) was incubated at 37 °C as follows: (1) no addition; (2) FAD (100 μM); (3) the assembly factors SdhE (10.4 μM) or SDHAF2 (8.4 μM); and (4) FAD (100 μM) plus appropriate assembly factors at the aforementioned concentrations. The incubation time was 15 min for SDHA and 30 min for SdhA. Corresponding control samples (with no additions) were held at 4 °C for the same time. After the incubation, the samples were transferred to 4 °C, and to all samples, including the control, either FAD and/or the assembly factor was added so that each sample contains 100 μM FAD and the appropriate assembly factor. Then 0.5 mM fumarate is added to each sample to initiate the flavinylation reaction. After 30 min incubation at 30 °C, 4× SDS sample buffer was added, and then in-gel fluorescence was determined as described previously.

[8] = molecular target: T4, apo-SdhA; experiment: Determination of Kd for FAD by ultrafiltration; assay type: binding; design: His6 (N); made in house; host or cells: E. coli RP437 ΔsdhE (RP-E), plasmid pCA24N-SdhA; conditions: 50 mM Hepes pH 7.0, 21 °C
Method: The method is adapted from Mortarino et al. ([36]). […] The exact volume and the concentration of free flavin (ε^450 = 11.3 mM^−1 cm^−1) in the filtrate was measured, and it is assumed the free flavin (FAD^free) concentrations are the same in the filtrate and concentrated fractions. The total FAD in the concentrated fraction was calculated, and the excess over FAD^free corresponded to SdhA–noncovalent FAD. The Kd = [FAD^free][apo-SdhA]/[SdhA–FAD] was calculated from the amount of apo-SdhA determined by total protein concentration. The data are expressed as mean ± SD of four to five independent measurements.
Target sequence in this assay (P0AC41 whole entry): as above

[9] = molecular target: T4, apo-SdhA; experiment: Hydrogen peroxide formation upon covalent flavinylation of SdhA (Amplex UltraRed); assay type: biochemical; design: His6 (N); made in house; host or cells: apo-SdhA: E. coli RP437 ΔsdhE (pCA24N-SdhA); conditions: apo-SdhA 2.8 μM, FAD 2.5 μM, SdhE 4.8 μM
Method: Upon covalent attachment, the flavin in SdhA became reduced and can be reoxidized by oxygen with formation of hydrogen peroxide. Amplex UltraRed was used to monitor the hydrogen peroxide formed. […] The reaction was started by addition of either 10 μM or 10 mM fumarate and hydrogen peroxide monitored by following the oxidation of Amplex UltraRed (567 nm) using an Agilent 8453 spectrophotometer.
Target sequence in this assay (P64559 whole entry): as the sequence (P64559 whole entry) above
Target sequence in this assay (P0AC41 whole entry): as the sequence (P0AC41 whole entry) above

[10] = molecular target: T3, human apo-SDHA; design: method as in PMID 32887801; conditions: cited from earlier work
[11] = molecular target: T4, apo-SdhA; experiment: Reduction/oxidation of FAD during SdhE-dependent flavinylation (absorbance at 452 nm); assay type: biochemical; design: His6 (N); made in house; host or cells: apo-SdhA: E. coli RP437 ΔsdhE (pCA24N-SdhA); conditions: 10 mM fumarate; 25 μM apo-SdhA, 20 μM FAD, 40 μM SdhE, 30 °C
Method: Spectral measurements and kinetics were performed by using an Agilent […] UV–visible spectrophotometer. For kinetic measurements, whole spectra (1 nm increments) were collected during the reaction at 1 to 5 s intervals.
Target sequence in this assay (P64559 whole entry): as the sequence (P64559 whole entry) above
Target sequence in this assay (P0AC41 whole entry): as the sequence (P0AC41 whole entry) above

[12] = molecular target: holo-SdhA–SdhE; design: method as in PMID 29348404; conditions: read-out: Kd for fumarate, holo-SdhA–SdhE complex; holo-SdhA with covalent FAD; cited from earlier work
[13] = +SdhE, 50 mM potassium phosphate pH 7.0, 0.1 mM FAD, 30 °C
[14] = read-out: k, ligand concentration for half-maximal flavinylation after 1 h incubation, +SdhE, 50 mM potassium phosphate pH 7.0, 0.1 mM FAD, 30 °C, 1 h

T3 sequence (P31040 43-664): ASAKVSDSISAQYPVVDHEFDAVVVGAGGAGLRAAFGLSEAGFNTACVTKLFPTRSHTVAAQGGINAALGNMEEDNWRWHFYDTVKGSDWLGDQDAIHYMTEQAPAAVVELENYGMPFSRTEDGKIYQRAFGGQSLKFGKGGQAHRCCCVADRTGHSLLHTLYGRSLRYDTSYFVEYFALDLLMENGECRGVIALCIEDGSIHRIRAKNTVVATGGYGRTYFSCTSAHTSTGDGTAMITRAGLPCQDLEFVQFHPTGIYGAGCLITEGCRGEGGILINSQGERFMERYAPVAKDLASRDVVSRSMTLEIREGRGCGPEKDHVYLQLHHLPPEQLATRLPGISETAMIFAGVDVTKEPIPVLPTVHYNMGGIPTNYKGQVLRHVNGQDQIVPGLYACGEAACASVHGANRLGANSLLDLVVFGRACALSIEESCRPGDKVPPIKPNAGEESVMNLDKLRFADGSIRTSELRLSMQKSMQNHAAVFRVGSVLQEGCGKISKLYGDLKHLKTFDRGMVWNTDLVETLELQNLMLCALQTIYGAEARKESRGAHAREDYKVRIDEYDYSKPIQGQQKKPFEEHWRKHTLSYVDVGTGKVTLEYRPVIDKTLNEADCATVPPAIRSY
T2 sequence (P0AC41 whole entry): as the sequence (P0AC41 whole entry) above
T1 sequence (P00363 whole entry): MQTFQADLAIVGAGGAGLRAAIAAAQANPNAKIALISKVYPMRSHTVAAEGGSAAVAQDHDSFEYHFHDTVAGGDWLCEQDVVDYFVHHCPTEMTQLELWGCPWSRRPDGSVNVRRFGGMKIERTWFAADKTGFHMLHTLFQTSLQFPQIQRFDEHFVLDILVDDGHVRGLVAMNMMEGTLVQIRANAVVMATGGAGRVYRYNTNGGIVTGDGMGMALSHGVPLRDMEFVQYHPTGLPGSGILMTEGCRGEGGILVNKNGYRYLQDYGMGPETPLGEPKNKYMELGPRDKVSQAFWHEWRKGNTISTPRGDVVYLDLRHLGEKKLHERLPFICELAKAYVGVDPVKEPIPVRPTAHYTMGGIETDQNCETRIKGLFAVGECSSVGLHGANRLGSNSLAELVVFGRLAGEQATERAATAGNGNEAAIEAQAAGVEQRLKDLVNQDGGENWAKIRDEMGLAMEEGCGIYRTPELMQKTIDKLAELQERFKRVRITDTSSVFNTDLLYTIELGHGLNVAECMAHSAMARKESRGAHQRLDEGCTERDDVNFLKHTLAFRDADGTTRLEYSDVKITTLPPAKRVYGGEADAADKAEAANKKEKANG

Structure (SMILES) | Covalent FAD attachment to apo-FrdA, SdhE-dependent [1] | Covalent FAD attachment to apo-SdhA, SdhE-dependent ([2]; FAD 100 μM, 1 h, 30 °C) | Initiation of flavinylation in Thermus thermophilus [3] | K, apparent first-order rate constant of covalent flavinylation, +SdhE [2, 13] [min⁻¹] | Covalent FAD attachment to apo-SdhA, SdhE-independent ([2]; −SdhE, FAD 100 μM, 1 h, 30 °C) | Covalent FAD attachment to apo-FrdA, SdhE-independent [1] | further results
O=C(O)CC(=O)O [malonate] | ~30% | ~30% |  |  |  |  | 
O=C(O)CCC(=O)O [Succinate, succinate] | high levels | high levels | quite proficient | 0.7 | partially effective |  | Initiation of flavinylation in Sulfolobus tokodaii [4]: proficient flavinylation; EC50 [2, 14]: 1 µM
O=C(O)CC(O)(CC(=O)O)C(=O)O [citrate] | able to induce | able to induce |  |  |  |  | 
CC(=O)O [acetate] | ~30% | ~30% |  |  |  |  | 
N[C@@H](CC(=O)O)C(=O)O [Aspartate, L-aspartate] | high levels | high levels |  | 0.1 |  | partially effective | EC50 [2]: 26 µM
O=C(O)CC(O)C(=O)O (centres unmarked) [Malate, malate] | high levels | high levels | quite proficient | 0.3 | partially effective |  | EC50 [2]: 10 µM
O=C(O)CC(=O)C(=O)O [oxaloacetate] | high levels | high levels | quite proficient |  |  | partially effective | 
Cc1cc2nc3c(=O)[nH]c(=O)nc-3n(C[C@H](O)[C@H](O)[C@H](O)COP(=O)(O)OP(=O)(O)OC[C@H]3O[C@@H](n4cnc5c(N)ncnc54)[C@H](O)[C@@H]3O)c2cc1C [FAD] |  |  |  |  |  |  | Increase in FAD concentration required for 50% flavinylation without SDHAF2 versus SDHAF2-dependent reaction ([5]; fumarate-only SDHA flavinylation): fivefold; Redox potential Em of free FAD [6]: −219 mV; Protection of apo-SdhA against thermal inactivation of the flavinylation reaction [7]: does not afford enhanced stability and protection; FAD requirement for maximum flavinylation of SdhA ([2]; +SdhE, fumarate 10 mM, apo-SdhA 6 μM, 1 h, 30 °C): stoichiometric ratios of FAD to apo-SdhA; EC50 ([2]; −SdhE, fumarate 10 mM, apo-SdhA 6 μM, 1 h, 30 °C, read-out: FAD concentration for half-maximal flavinylation of SdhA): ~20 µM; Kd ([8]; read-out: Estimated apparent Kd for FAD, apo-SdhA in the presence of SdhE, +SdhE 12.5 μM): 1.3 ± 0.5 µM; Kd ([8]; without SdhE, read-out: Estimated apparent Kd for FAD, apo-SdhA alone): 14.4 ± 1.7 µM
CC(=O)C(=O)O [Pyruvate] | able to induce | able to induce |  |  |  |  | 
O=C(O)/C=C/C(=O)O [Fumarate] | high levels | high levels | quite proficient | 1.7 | complete | complete | Saturation level of SDHAF2-independent flavinylation relative to SDHAF2-dependent flavinylation ([5]; −SDHAF2, 60 mM fumarate, 100 μM FAD, time course): ~70%; k, rate of covalent flavinylation of SDHA, − SDHAF2 ([5]; −SDHAF2, 60 mM fumarate, 100 μM FAD, assuming 70% of protein capable of flavinylation): 0.032 min⁻¹; EC50 ([5]; −SDHAF2, fumarate concentration for 50% flavinylation, read-out: K (fum), − SDHAF2): 12000 µM; SDHAF2-independent flavinylation of SDHA relative to flavinylation in the presence of SDHAF2 ([5]; −SDHAF2, ligand 20 mM, FAD 100 μM, 1 h, 37 °C): ~40%; Hydrogen peroxide formation on induction of flavinylation ([9]; 10 μM fumarate): significant increase in hydrogen peroxide; Hydrogen peroxide formation on induction of flavinylation ([9]; 10 mM fumarate): very low release of hydrogen peroxide; EC50 ([10]; +SDHAF2, read-out: Concentration of fumarate needed to achieve 50% flavinylation, with SDHAF2): 16 µM; k, rate of covalent flavinylation of SDHA, + SDHAF2 [10]: 0.15 min⁻¹; k app, fast phase (reduction of FAD) [11]: ~7 min⁻¹; k app, second slower phase (reoxidation of reduced flavin) [11]: ~0.1 min⁻¹; Initiation of flavinylation in Sulfolobus tokodaii [4]: proficient flavinylation; Fumarate concentration giving complete flavinylation of apo-SdhA ([2]; +SdhE, apo-SdhA 6 μM, FAD 100 μM, 1 h, 30 °C): ~1 µM; EC50 [2, 14]: < 1 µM; k, apparent first-order rate constant of covalent flavinylation, −SdhE ([2]; −SdhE, 50 mM potassium phosphate pH 7.0, 0.1 mM FAD, 30 °C): 0.1 min⁻¹; k, apparent first-order rate constant of covalent flavinylation, −SdhE ([2]; −SdhE, 50 mM potassium phosphate pH 7.0, 0.1 mM FAD, 30 °C, listed as fumarate): 0.095 min⁻¹; Kd [12]: 64 µM
